Converted amounts (≈) assume the structure as drawn. Where two headings read alike, the source gives them in different places.
Experiments:
[1] = system: C. elegans strain glp-4;sek 1; assay: Toxicity of peptides in uninfected C. elegans; format: in vivo, Caenorhabditis elegans; details: worms grown four days with peptide; D-RR4 and colistin at 8 × MIC
Protocol: To test the efficacy of the synthetic peptides to protect against infections in vivo, we utilized a C. elegans model of bacterial infection. This model has been used extensively for early-stage evaluation of promising antimicrobials, [35], [36]. Initially, the lethal dose of D-RR4 against uninfected nematodes was determined.
(A) Evaluation of toxicity of peptides in Caenorhabditis elegans. C. elegans strain glp-4;sek 1 was grown for four days in the presence of peptides at different concentrations. Worms were monitored daily and the live worms were counted. Results are expressed as a Kaplan-Meier survival curve. (B) Evaluation of antimicrobial activity of peptides to reduce the bacterial CFU inside infected Caenorhabditis elegans. C. elegans strain glp-4; sek 1 were infected with P. aeruginosa PAO1, colistin-resistant P. aeruginosa 1109, or A. baumannii ATCC BAA-1605. […] After treatment, worms were lysed and bacteria were counted. One asterisk (*) indicates significant difference with the negative control. Two asterisks (**) indicates significant difference with the monotherapy treatment (P < 0.05). Results are expressed as means from three biological replicates ± standard deviation. (C) Efficacy of peptides in a Caenorhabditis elegans model of bacterial infection. […] Worms were monitored daily and the live worms were counted. Results are expressed as a Kaplan-Meier survival curve. C. elegans receiving no treatment served as a negative control.

[2] = system: murine macrophages (J774.1A); assay: Cytotoxicity, MTS assay; details: for EC50: 24 h
Protocol: (§1) A significant limitation for translating AMPs into clinical applications is their toxicity to host (mammalian) cells. Herein, we evaluated the cytotoxic effects of our peptide constructs against murine macrophages (J774.1A) and human keratinocytes (HaCaT cells), via the MTS assay.
(§2) The peptides were assayed for potential in vitro toxicity against human keratinocytes (HaCaT) and murine macrophage cells (J774A.1), as described before, with the following modifications. Cells were treated with peptides at different concentrations for 24 hours. The therapeutic index of the peptides was calculated as the ratio of mammalian EC50 (the concentration of peptide that inhibited growth of 50% of the mammalian cells) to the MIC50 of peptides against bacteria.

[3] = system: human keratinocytes (HaCaT cells); assay: Cytotoxicity, MTS assay; details: for EC50: 24 h
Protocol: as §1, §2

[4] = system: P. aeruginosa and A. baumannii isolates
Text: (§3) The broth microdilution technique was utilized to assess the MIC of designed peptides according to the guidelines of the Clinical and Laboratory Standards Institute (CLSI)[37].

[5] = system: colistin-resistant P. aeruginosa isolated from cystic fibrosis patients; details: colistin-resistant isolated from cystic fibrosis patients
Text: as §3

[6] = system: human red blood cells; assay: Hemolysis assay; format: cell-based; details: for HC50: red cells of human
Protocol: Next, we assessed the hemolytic activity of the peptides on human red blood cells (RBCs).
Peptides were assayed for hemolytic activity against human red blood cells, as described previously.

[7] = system: intracellular P. aeruginosa PAO1; format: cell-based; details: PAO1, 24 h, 8
Protocol: (§4) Figure 2 Intracellular antibacterial activity of peptides in infected murine macrophage cells (J774A.1). […] Statistical analysis was calculated using one-way ANOVA, with post hoc Tukey’s multiple comparisons test. P < 0.05 was considered significant. One asterisk (*) indicates significance from the negative control. Results are expressed as means from three biological replicates ± standard deviation.
(§5) In order to assess the peptides’ ability to kill intracellular bacteria, murine macrophages (J774A.1) were infected, as described in previous studies[31]–[33], [42], [48]–[51]. Briefly, J774A.1 cells were seeded and incubated as described above for the toxicity assessment. Following incubation, cells were infected with either P. aeruginosa PAO1 or A. baumannii ATCC 19606 (multiplicity of infection 100:1) in DMEM + 10% FBS for two hours. After infection, the wells were washed with 200 µL of media containing gentamicin (50 µg/ml) and further incubated for 30 minutes with gentamicin to kill extracellular bacteria. […] Medium alone was used as a negative control. After incubation, the media was aspirated and washed twice with PBS to remove any residual test agent. Next, 100 µL of PBS containing 0.01% triton X-100 was added to lyse the J774 cells. Subsequently, bacteria were diluted and plated on TSA plates. Plates were incubated at 37 °C for 16 hours. After incubation, bacteria were enumerated and analyzed. The experiment was repeated twice. The average percent reduction of bacterial growth for each treatment regimen has been reported.

[8] = system: intracellular A. baumannii ATCC 19606; format: cell-based; details: ATCC 19606, 24 h, 8
Protocol: as §4, §5

[9] = system: P. aeruginosa PAO1; assay: MIC after treatment with proteases; format: cell-based; details: 50 mM Tris-HCl pH 7.4, 37 °C, four hours
Protocol: To examine the ability of peptides to resist proteolytic digestion by mammalian and bacterial proteases, RR4 and D-RR4 were incubated with trypsin or proteinase K at a molar ratio of 500: 1 (peptide: enzyme), respectively, in digestion buffer (50 mM Tris–HCl, pH 7.4) at 37 °C for four hours, as described previously.

[10] = system: P. aeruginosa PAO1 biofilm; assay: Disruption of established biofilms, microtiter dish crystal violet assay; format: cell-based; details: for biofilm mass disrupted: mature (24 hour) biofilm, 24 hours at 37 °C, crystal violet OD 595 nm
Protocol: (§6) Figure 1 Efficacy of peptides on established biofilms of P. aeruginosa PAO1 and A. baumannii ATCC BAA-1605. […] After incubation, wells were washed and biofilms were stained with 0.5% (w/v) crystal violet for 30 minutes. The dye was solubilized with ethanol (95%) and the optical density (595 nm) of the biofilm mass was measured. Experiments were repeated twice independently and the average values are reported.
(§7) To examine the peptides’ ability to disrupt bacterial biofilms, the microtiter dish biofilm formation assay was employed[41]–[43].

[11] = system: A. baumannii ATCC BAA-1605 biofilm; assay: as above; format: cell-based; details: mature (24 hour) biofilm
Protocol: as §6, §7

**Q.** With `CC[C@@H](C)[C@@H](NC(=O)[C@@H](CCCNC(=N)N)NC(=O)[C@@H](CCCNC(=N)N)NC(=O)[C@@H](CC(C)C)NC(=O)[C@@H](Cc1c[nH]c2ccccc12)NC(=O)[C@@H](C)NC(=O)[C@@H](CCCCN)NC(=O)[C@H](NC(=O)[C@@H](CCCNC(=N)N)NC(=O)[C@@H](CCCNC(=N)N)NC(=O)[C@@H](CC(C)C)NC(=O)[C@H](N)Cc1c[nH]c2ccccc12)[C@H](C)CC)C(=O)N[C@H](CCCCN)C(=O)N[C@H](C)C(N)=O` [D-RR4] as the compound, how does the “toxicity to uninfected worms” value [1] read?
**A.** The value was “not toxic”.

**Q.** And the EC50 [2]?
**A.** The EC50 was 64 µM.

**Q.** And the “Therapeutic index (TI)” value ([2]; EC50 (J774.1) over MIC50, 512 µM used where no cytotoxicity at […])?
**A.** Its value is 32.

**Q.** And the EC50 [3]?
**A.** Its EC50 is 64 µM.

**Q.** What about the “Therapeutic index (TI)” value ([3]; EC50 (HaCaT) over MIC50, 512 µM used where no cytotoxicity at […]) of the same compound?
**A.** Its value is 32.

**Q.** What about the MIC50 [4] of the same compound?
**A.** The MIC50 was 2 µM (≈ 3.73 µg/mL).

**Q.** And the MIC90 [4]?
**A.** Its MIC90 is 4 µM (≈ 7.46 µg/mL).

**Q.** What about the “MIC against all tested bacterial strains” value [4] of the same compound?
**A.** The value was 2 to 8 µM.

**Q.** What about the MIC50 [5] of the same compound?
**A.** Its MIC50 is 4 µM (≈ 7.46 µg/mL).

**Q.** And the MIC90 [5]?
**A.** Its MIC90 is 16 µM (≈ 29.8 µg/mL).

**Q.** And the “Therapeutic index (TI) RBCs” value ([6]; HC50 over MIC50)?
**A.** Its value is 128.

**Q.** What about the HC50 [6] of the same compound?
**A.** Its HC50 is 256 µM.

**Q.** And the intracellular bacteria killed [7]?
**A.** The intracellular bacteria killed was 96.00% ± 1.15.

**Q.** What about the intracellular bacteria killed [8] of the same compound?
**A.** Its intracellular bacteria killed is 100.00% ± 0.00.

**Q.** Which results are given for `CC[C@H](C)[C@H](NC(=O)[C@H](CCCNC(=N)N)NC(=O)[C@H](CCCNC(=N)N)NC(=O)[C@H](CC(C)C)NC(=O)[C@H](Cc1c[nH]c2ccccc12)NC(=O)[C@H](C)NC(=O)[C@H](CCCCN)NC(=O)[C@@H](NC(=O)[C@H](CCCNC(=N)N)NC(=O)[C@H](CCCNC(=N)N)NC(=O)[C@H](CC(C)C)NC(=O)[C@@H](N)Cc1c[nH]c2ccccc12)[C@@H](C)CC)C(=O)N[C@@H](CCCCN)C(=O)N[C@@H](C)C(=O)O` [RR4]?
**A.** EC50 [2]: 64 µM; EC50 [3]: 128 µM; MIC50 [4]: 4 µM (≈ 7.47 µg/mL); MIC90 [4]: 8 µM (≈ 14.9 µg/mL); improvement in the MIC over RR ([4]; MIC50 and MIC90): 16 fold; MIC50 [5]: 8 µM (≈ 14.9 µg/mL); MIC90 [5]: 32 µM (≈ 59.7 µg/mL); Therapeutic index (TI) RBCs [6]: 64; HC50 [6]: 256 µM; MIC ([9]; after Proteinase K 1:500 (peptide:enzyme 500:1)): > 64 µM; MIC ([9]; after Trypsin 1:500 (peptide:enzyme 500:1)): > 64 µM; intracellular bacteria killed [7]: 14.60% ± 5.50; intracellular bacteria killed [8]: 25.00% ± 8.90; biofilm mass reduced ([10]; 0.5× to 1 × MIC, respectively): 20–35%; biofilm mass disrupted ([10]; 4 × MIC): more than 31%; biofilm mass disrupted ([10]; 8 × MIC): > 39%; biofilm mass disrupted ([10]; 16 × MIC): > 41%; biofilm mass disrupted ([10]; 32 × MIC): > 61%; biofilm-disrupting activity [11]: concentration-dependent activity

Reference: article PMC5537347, “A short D-enantiomeric antimicrobial peptide with potent immunomodulatory and antibiofilm activity against multidrug-resistant Pseudomonas aeruginosa and Acinetobacter baumannii” (Scientific Reports, 2017)
